Experiments:
BT474 cells = assay: Cell death quantification (Sytox Green), RSL3-induced ferroptosis; assay type: cell-based, human; settings: RSL3 0.5-1 μM, GDC-0941 2 μM, MK-2206 2 μM, Torin 1 μM, CCI-779 0.5 μM, Fatostatin A 5 μM, CAY10566 5 μM
Experimental: (§1) FIG. 1 A-D. Oncogenic activation of the PI3K-AKT-mTOR signaling pathway confers resistance to ferroptosis. (A) Genetic background of the analyzed cancer cell lines and their sensitivity to RSL3. (B) Cells were seeded in 96-well plate, 2×10^4 cells per well and incubated overnight. Cell death was induced by 24-h treatment of RSL3 with indicated concentrations. Cell death were measured by Sytox Green staining, as detailed in Methods. (C) Indicated protein components in the PI3K-AKT pathway were detected by western blot in indicated cell types. (D) Cells were treated with or without PI3K inhibitor GDC-0941 (2 μM), AKT inhibitor MK-2206 (2 μM), RSL3 (1 μM), or ferroptosis inhibitor Ferrostatin-1 (Fer-1, 1 μM) as indicated for 12 h (BT474) or 24 h (MDA-MB-453). Cell death was measured. Indicators for P values (same in all other figures): ****, P≤0.0001; *** P≤0.001; **, P≤0.01; *, P≤0.05; ns, P>0.05
(§2) FIG. 2 A-E. mTORC1, instead of mTORC2, suppresses ferroptosis. (A) MDA-MB-453 and BT474 were treated with CCI-779 (0.5 μM), RSL3 (1 μM for MDA-MB-453 cells and 0.5 μM for BT474 cells), and Fer-1 (1 μM) as indicated. (B) Cells were seeded in 6-well plate, 4×10^5 cells per well and incubated overnight. MDA-MB-453 and BT474 cells were treated as indicated. CCI-779, 0.5 μM; RSL3, 1 μM for MDA-MB-453 cells and 0.5 μM for BT474 cells; Fer-1, 1 μM. Cells were stained with 5 μM C1I-BODIPY followed by flow cytometry after 8 h-treatment. (C) 3D spheroids were treated as indicated. CCI-779, 0.5 μM; RSL3, 0.5 μM; Fer-1, 1 μM. Top panel, dead cells were stained by SYTOX Green (scale bar, 100 μm). Bottom panel, cell viability was assayed by measuring cellular ATP levels. (D) Cells expressing shRNAs targeting RPTOR or RICTOR were treated as indicated. CCI-779, 0.5 μM; RSL3, 0.5 μM; Fer-1, 1 μM. (E) Lipid peroxidation of samples as in panel D were measured.
(§3) FIG. 5 A-H. SREBP1 protects cells from ferroptosis through SCD1 activity. (A) The expression of SREBP1, and its targets SCD1, FASN, and ACACA, in control and SREBF1-sgRNA cells were detected by western blot. (B) The mRNA level of SREPF1 and its targets gene SCD were measured by RT-PCR. (C) Cells were pretreated with or without 5 μM CAY10566 overnight, and then subjected to the indicated treatments. RSL3, 0.5 μM for BT474 cells and 1 μM for MDA-MB-453 cells; CAY10566, 5 μM; Fer-1, 1 μM. (D) Cells expressing control or SCD-sgRNA were treated as indicated. RSL3, 1 μM for MDA-MB-453 cells and 0.5 μM for BT474 cells; Fer-1, 1 μM. (E) 3D spheroids derived from BT474 cells harboring control or SCD-sgRNA were treated as indicated. RSL3, 0.5 μM; CCI-779, 0.5 μM; Fer-1, 1 μM. Left, cell death staining (scale bar, 100 m). Right, cell viability. (F) SCD1 was overexpressed in BT474 cells and determined by western blot. Cells were treated as indicated. RSL3, 0.5 μM; CCI-779, 0.5 μM. (G) 3D spheroids derived from BT474 cells with control or SCD1 overexpression were treated as indicated. RSL3, 0.5 μM; CCI-779, 0.5 μM; Fer-1, 1 μM. Left, cell death staining (scale bar, 100 m). Right, cell viability. (H) Cells were treated as indicated. RSL3, 0.5 μM for BT474 and 1 μM for MDA-MB-453; CCI-779, 0.5 μM; Oleic acid (OA), 0.5 mM; stearic acid (SA), 0.5 mM.
(§4) FIG. 7 A-J. PI3K-AKT-mTOR signaling regulates ferroptosis sensitivity. (A) Cells were treated as indicated. GDC-0941, 2 μM; MK-2206, 2 μM; RSL3, 1 μM; Fer-1, 1 μM. Lipid peroxidation was measured. (B) Cells were treated with indicated conditions. Torin, 1 μM; RSL3, 1 μM for MDA-MB-453 cells and 0.5 μM for BT474 cells; Fer-1, 1 μM. Cell death was measured. (C) Cells were treated with indicated conditions. RSL3, 10 μM for MCF cells and PC-3 cells, 5 μM for T47D cells, 1 μM for HepG2 cells; Torin, 1 μM; CCI-779, 0.5 μM. (D) Cells were treated as indicated. CCI-779, 0.5 μM; Torin, 1 μM; Fer-1, 1 μM. Cell death was staining by propidium iodide (PI) (red) or Sytox Green (green) (scale bar, 100 μm). (E-F) 3D spheroids for MDA-MB-453 cells and MCF7 cells were treated as indicated. […]

MDA-MB-453 cells = assay: as above; assay type: cell-based, human; settings: RSL3 1 μM, GDC-0941 2 μM, MK-2206 2 μM, Torin 1 μM, CCI-779 0.5 μM, Fatostatin A 5 μM, CAY10566 5 μM
Experimental: as §1, §2, §3, §4

SMILES | sensitization to ferroptosis (cell death) induced by RSL3 (BT474 cells) | sensitization to ferroptosis (cell death) induced by RSL3 (MDA-MB-453 cells)
Cc1nnc(-c2ccc(N3CCC(Oc4cc(F)ccc4Cl)CC3)nn2)o1 [CAY10566] | sensitized the effect of RSL3 | sensitized the effect of RSL3
CO[C@H]1C[C@@H]2CC[C@@H](C)[C@@](O)(O2)C(=O)C(=O)N2CCCC[C@H]2C(=O)O[C@H]([C@H](C)C[C@@H]2CC[C@@H](OC(=O)C(C)(CO)CO)[C@H](OC)C2)CC(=O)[C@H](C)/C=C(\C)[C@@H](O)[C@@H](OC)C(=O)[C@H](C)C[C@H](C)/C=C/C=C/C=C/1C [CCI-779, Temsirolimus] | sensitize | sensitize
CCCc1cc(-c2nc(-c3ccc(C)cc3)cs2)ccn1 [Fatostatin A] | sensitized ferroptosis | sensitized ferroptosis
CS(=O)(=O)N1CCN(Cc2cc3nc(-c4cccc5[nH]ncc45)nc(N4CCOCC4)c3s2)CC1 [GDC-0941] | sensitized | sensitized
NC1(c2ccc(-c3nc4ccn5c(=O)[nH]nc5c4cc3-c3ccccc3)cc2)CCC1 [MK-2206] | sensitized | sensitized
CCC(=O)N1CCN(c2ccc(-n3c(=O)ccc4cnc5ccc(-c6cnc7ccccc7c6)cc5c43)cc2C(F)(F)F)CC1 [Torin] | sensitized | sensitized

Source: patent US20230414626A1, “INDUCTION OF FERROPTOSIS FOR CANCER THERAPY” (Memorial Sloan Kettering Cancer Center, priority 2020, published 2023)
